Assay results reported in PMC11062922 (Nature Chemical Biology, 2023).
Read-outs that look alike come from different tables or passages of the source.

What was measured:
AAK1 = biological target: T1, AAK1 (Homo sapiens, UniProt Q2M2I8); test: Kinobeads two-dose competition binding: AAK1; conditions: for CATDS: sheet CATDS matrix 2, Gene Name AAK1; for potency estimated from few doses: read-out: Kinobeads Drugmatrix - all: apparent Kd, AAK1;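 on all read-outs here: kinobeads competition pulldown from cell lysate, compound preincubated 45 min at 4 °C, bead-bound protein measured by label-free mass spectrometry against DMSO vehicle control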
T1 construct: to maximize the representation of endogenous proteins; endogenous in cells
T1 sequence (Q2M2I8 whole entry): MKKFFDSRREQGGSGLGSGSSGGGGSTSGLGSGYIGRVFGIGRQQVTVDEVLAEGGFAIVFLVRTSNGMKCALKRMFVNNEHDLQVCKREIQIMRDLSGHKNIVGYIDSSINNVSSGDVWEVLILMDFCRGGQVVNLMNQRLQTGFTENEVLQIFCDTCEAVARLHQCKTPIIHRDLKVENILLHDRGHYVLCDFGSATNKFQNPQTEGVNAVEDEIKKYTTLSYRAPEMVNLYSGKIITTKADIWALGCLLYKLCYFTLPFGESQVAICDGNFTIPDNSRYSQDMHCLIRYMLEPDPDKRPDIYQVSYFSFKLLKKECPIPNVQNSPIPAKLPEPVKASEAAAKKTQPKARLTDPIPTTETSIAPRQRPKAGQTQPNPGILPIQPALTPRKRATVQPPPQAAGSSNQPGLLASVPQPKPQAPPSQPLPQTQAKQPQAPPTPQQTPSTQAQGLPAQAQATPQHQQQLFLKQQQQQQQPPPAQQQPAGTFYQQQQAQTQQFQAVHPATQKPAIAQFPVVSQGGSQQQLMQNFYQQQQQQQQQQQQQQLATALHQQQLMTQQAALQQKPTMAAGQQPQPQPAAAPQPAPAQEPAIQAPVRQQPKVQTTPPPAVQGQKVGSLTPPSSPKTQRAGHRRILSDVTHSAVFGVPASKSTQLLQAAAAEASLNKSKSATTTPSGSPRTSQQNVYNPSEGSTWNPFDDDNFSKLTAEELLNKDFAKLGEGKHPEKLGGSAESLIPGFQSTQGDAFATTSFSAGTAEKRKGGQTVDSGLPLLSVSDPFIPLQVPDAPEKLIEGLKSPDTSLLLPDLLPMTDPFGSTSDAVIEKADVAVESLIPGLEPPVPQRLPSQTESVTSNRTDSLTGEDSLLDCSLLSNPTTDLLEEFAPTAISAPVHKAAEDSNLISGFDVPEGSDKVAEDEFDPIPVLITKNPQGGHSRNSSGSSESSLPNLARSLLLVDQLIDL

ACAD11 = biological target: T2, ACAD11 (Homo sapiens, UniProt Q709F0); test: Kinobeads two-dose competition binding: ACAD11; conditions: sheet CATDS matrix 2; Gene Name ACAD11
T2 construct: endogenous in cells
T2 sequence (Q709F0 1-780): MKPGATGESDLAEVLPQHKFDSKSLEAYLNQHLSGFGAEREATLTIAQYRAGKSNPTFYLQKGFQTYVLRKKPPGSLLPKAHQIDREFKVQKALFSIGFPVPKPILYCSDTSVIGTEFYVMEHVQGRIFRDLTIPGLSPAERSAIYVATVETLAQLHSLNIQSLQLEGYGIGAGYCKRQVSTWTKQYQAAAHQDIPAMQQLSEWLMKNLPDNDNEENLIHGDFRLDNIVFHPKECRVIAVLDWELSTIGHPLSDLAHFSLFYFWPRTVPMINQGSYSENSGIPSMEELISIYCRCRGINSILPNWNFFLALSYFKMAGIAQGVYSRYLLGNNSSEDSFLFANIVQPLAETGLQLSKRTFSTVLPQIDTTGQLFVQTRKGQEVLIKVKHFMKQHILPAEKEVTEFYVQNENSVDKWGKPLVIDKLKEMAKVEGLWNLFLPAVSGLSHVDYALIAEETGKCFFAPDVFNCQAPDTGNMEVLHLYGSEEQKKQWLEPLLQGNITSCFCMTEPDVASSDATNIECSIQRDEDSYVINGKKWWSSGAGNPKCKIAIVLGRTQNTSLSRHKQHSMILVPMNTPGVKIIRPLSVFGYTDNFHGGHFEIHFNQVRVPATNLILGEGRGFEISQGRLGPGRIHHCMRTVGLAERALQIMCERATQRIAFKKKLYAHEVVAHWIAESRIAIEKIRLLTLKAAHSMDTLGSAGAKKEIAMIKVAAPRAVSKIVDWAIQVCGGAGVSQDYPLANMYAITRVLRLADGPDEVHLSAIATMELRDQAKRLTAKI

ACOX1 = biological target: T3, ACOX1 (Homo sapiens, UniProt Q15067); test: Kinobeads two-dose competition binding: ACOX1; conditions: sheet CATDS matrix 2; Gene Name ACOX1;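 further: competition of compounds with immobilized broad-spectrum kinase inhibitor beads in cell lysate at 100 and 1,000 nM, 45 min at 4 °C, bead-bound protein quantified by label-free MS versus DMSO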
T3 construct: endogenous in cells
T3 sequence (Q15067 1-660): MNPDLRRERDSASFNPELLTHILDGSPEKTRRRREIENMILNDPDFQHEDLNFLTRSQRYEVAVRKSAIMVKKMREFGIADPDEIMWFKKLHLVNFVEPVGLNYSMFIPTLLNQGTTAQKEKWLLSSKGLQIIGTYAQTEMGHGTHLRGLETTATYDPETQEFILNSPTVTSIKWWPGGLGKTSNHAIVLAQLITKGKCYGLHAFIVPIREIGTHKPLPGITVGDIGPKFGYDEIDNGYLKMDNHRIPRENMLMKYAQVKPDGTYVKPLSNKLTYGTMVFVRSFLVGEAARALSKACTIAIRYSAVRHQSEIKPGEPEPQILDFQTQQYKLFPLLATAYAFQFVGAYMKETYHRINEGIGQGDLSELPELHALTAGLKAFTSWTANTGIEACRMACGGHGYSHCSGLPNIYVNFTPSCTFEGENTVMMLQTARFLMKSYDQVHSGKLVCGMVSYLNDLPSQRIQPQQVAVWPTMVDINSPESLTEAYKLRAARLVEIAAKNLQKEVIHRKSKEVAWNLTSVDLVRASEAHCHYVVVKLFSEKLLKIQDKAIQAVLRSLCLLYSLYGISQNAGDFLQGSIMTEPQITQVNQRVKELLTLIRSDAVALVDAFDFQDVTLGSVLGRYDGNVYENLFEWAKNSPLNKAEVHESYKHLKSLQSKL

ABL1 = ABL1 (Homo sapiens, UniProt P00519); test: Kinobeads two-dose competition binding: ABL1; conditions: sheet CATDS matrix 2; Gene Name ABL1
ABL1, sequence (P00519 28-1130 limits assumed): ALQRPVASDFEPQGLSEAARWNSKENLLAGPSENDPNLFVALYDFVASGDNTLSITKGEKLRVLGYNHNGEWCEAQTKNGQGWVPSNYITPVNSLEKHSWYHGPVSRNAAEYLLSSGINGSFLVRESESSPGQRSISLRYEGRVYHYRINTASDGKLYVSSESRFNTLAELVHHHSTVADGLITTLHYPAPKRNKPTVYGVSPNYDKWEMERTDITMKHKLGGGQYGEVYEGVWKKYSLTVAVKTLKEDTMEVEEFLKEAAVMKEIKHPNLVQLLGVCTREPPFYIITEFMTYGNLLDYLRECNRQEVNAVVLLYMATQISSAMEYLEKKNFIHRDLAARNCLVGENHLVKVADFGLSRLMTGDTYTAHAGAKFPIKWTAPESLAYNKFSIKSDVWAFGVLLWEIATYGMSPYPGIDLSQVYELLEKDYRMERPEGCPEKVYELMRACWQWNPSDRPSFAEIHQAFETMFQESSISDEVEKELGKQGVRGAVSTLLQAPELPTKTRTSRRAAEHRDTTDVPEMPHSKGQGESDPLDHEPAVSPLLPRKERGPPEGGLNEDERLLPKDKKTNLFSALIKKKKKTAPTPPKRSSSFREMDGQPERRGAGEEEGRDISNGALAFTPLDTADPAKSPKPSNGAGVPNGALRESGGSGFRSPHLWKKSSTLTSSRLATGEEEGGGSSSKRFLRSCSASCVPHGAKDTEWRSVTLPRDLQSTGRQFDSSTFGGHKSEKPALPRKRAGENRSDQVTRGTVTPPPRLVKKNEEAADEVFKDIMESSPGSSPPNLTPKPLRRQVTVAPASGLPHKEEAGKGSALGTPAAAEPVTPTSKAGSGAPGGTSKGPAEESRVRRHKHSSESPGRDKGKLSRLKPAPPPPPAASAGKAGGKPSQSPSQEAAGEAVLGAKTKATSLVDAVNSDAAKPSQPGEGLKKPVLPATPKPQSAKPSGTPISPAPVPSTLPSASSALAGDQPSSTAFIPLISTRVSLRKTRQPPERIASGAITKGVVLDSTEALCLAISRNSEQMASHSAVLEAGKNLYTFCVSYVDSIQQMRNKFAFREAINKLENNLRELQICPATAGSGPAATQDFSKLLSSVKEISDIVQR

ABL2 = biological target: T4, ABL2 (Homo sapiens, UniProt P42684); test: Kinobeads two-dose competition binding: ABL2; conditions: sheet CATDS matrix 2; Gene Name ABL2
T4 construct: endogenous in cells
T4 sequence (P42684 whole entry): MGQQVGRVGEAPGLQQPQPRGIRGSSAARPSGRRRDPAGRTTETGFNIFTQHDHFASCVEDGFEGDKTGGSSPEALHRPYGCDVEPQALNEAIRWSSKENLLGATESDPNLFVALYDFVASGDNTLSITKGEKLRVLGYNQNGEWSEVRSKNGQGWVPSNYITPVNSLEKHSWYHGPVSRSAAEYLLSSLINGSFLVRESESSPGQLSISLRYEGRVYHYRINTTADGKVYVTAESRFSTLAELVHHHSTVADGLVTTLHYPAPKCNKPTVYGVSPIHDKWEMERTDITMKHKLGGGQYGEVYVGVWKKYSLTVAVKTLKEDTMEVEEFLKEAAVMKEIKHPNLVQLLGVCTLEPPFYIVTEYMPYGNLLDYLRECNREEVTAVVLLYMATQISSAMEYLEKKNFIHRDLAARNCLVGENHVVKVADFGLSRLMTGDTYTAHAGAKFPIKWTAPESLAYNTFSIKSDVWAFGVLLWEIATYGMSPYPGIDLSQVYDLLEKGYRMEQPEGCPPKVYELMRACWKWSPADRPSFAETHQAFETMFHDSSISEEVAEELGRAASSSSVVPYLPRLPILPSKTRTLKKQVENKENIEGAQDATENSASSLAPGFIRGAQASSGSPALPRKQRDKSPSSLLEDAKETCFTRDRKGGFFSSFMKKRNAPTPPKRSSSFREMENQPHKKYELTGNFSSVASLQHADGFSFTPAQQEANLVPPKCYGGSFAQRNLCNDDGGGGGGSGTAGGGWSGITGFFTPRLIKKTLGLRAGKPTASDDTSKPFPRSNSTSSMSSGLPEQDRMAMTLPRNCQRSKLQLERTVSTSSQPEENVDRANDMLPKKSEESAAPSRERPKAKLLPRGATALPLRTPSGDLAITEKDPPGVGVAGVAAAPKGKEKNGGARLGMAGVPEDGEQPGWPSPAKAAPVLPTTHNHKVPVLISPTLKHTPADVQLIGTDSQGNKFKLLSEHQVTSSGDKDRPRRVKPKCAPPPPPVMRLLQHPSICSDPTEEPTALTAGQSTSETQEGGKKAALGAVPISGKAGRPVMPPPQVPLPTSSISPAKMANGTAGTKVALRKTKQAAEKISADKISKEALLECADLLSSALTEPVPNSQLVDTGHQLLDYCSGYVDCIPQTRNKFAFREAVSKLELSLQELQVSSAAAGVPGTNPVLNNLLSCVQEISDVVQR

[1] = sheet "Kinobeads Drugmatrix - all", unit inferred, same values below 1000 recur in sheet "nanomolar"

Row | SMILES | CATDS (AAK1) | CATDS (ACAD11) | CATDS (ACOX1) | CATDS (ABL1) | CATDS (ABL2) | potency estimated from few doses (AAK1; [1]) [nM] | potency estimated from few doses (AAK1) [nM]
1 | O=C(NCCNc1ccnc(Nc2ccc(F)cc2)n1)Nc1ccccc1F [GSK1379880A] | 0 | 0 | 0 | 0 | 0 | – | –
2 | Cc1ccc(NC(=O)Nc2ccccc2F)cc1-c1ccc(C(=O)Nc2ccncc2)cc1 [GSK1398477_KCGS] | 0.01281 | 0.01477 | 0 | 0.0136 | 0.02269 | – | –
3 | CC(C)(C)OC(=O)NC1CCCN(c2cc(-c3ccc4c(N)n[nH]c4c3)nc(N)n2)C1 (stereo not shown) [GSK2286096A] | 0 | 0 | 0 | 0 | 0 | – | –
4 | NCC(NCc1ccc(-c2ccnc3[nH]ccc23)s1)c1ccccc1 (stereo not shown) [GSK1321565A] | 0.2016 | 0 | 0 | 0 | 0 | 820 | –
5 | CC(C)NCC(Cc1ccccc1)NC(=O)c1cc(Br)c(-c2ccnc3[nH]ccc23)s1 (stereo not shown) [GSK1383281A] | 0 | 0 | 0 | 0 | 0 | – | –
6 | COc1cc(N2CCN(C(C)C)CC2)ccc1Nc1nc(Nc2cccc3ncccc23)c2cc[nH]c2n1 [GSK1511931A] | 0 | 0 | 0 | 0 | 0 | – | –
7 | c1ccc(-c2cc3ccncc3cc2OC2CCNCC2)cc1 [GSK1122999D] | 0 | 0 | 0 | 0 | 0 | – | –
8 | O=C(Nc1cccc(-c2nn3ncccc3c2-c2ccnc(Nc3ccccc3)n2)c1)c1c(F)cccc1F [GSK198271A] | 0 | 0 | 0 | 0 | 0 | – | –
9 | COc1ccc(Nc2nccc(-c3ccc(NC(=O)c4cc5cc(F)ccc5[nH]4)cc3)n2)cc1 [GSK1229496A] | 0 | 0 | 0 | 0 | 0 | > 1000 | –
10 | COc1cc2ncnc(Nc3cccc(Cl)c3F)c2cc1O[C@H]1CC[C@H]([C@@H]2NCCNC2=O)CC1 [BI00133844] | 0 | 0 | 0 | 0 | 0 | – | –
11 | COC(=O)C(NC(=O)NC1CCN(c2ccnc(Nc3ccc(F)cc3)n2)C1)c1ccccc1 (stereo not shown) [GSK1379712_KCGS] | 0 | 0 | 0 | 0 | 0 | – | –
12 | NC[C@H](CC1CCCCC1)NC(=O)c1cc(Br)c(-c2ccnc3[nH]ccc23)s1 [GSK1581427A] | 0 | 0 | 0 | 0 | 0 | – | –
13 | O=C(NCCNc1ccnc(NCc2ccc(F)cc2)n1)c1cc2ccccc2s1 [GSK1379944A] | 0 | 0 | 0 | 0 | 0 | – | –
14 | CN(C)C(=O)/C(C#N)=C/c1ccc(-c2nc3cnc4[nH]ccc4c3n2C2CCCCC2)o1 [FM-381] | 0 | 0 | 0 | 0 | 0 | > 1000 | –
15 | C[C@@H]1CCCCN1c1cc(-c2ccc3c(N)n[nH]c3c2)nc(N)n1 [GSK2258759A] | 0 | 0 | 0 | 0 | 0 | – | –
16 | CC1=C(C(=O)Nc2ccc3[nH]ncc3c2)C(c2ccc(F)cc2)NC(=O)N1 (stereo not shown) [GSK180736A] | 0 | 0 | 0 | 0 | 0 | – | –

Row | SMILES | CATDS (AAK1) | CATDS (ACAD11) | CATDS (ACOX1) | CATDS (ABL1) | CATDS (ABL2) | potency estimated from few doses (AAK1; [1]) [nM] | potency estimated from few doses (AAK1) [nM]
17 | C=CC(=O)Nc1cc(-n2c(=O)ccc3cnc4ccc(-c5ccc(NS(C)(=O)=O)cc5)cc4c32)ccc1C [BMX-IN-1] | 0 | 0 | 0 | 0 | 0 | – | –
18 | Cc1cn2c(=O)cc(N3CCOCC3)nc2n1Cc1cccc(Cl)c1Cl [GSK2334006A] | 0 | 0 | 0 | 0 | 0 | – | –
19 | O=c1[nH]ccc2nc(N[C@@H]3CCNC3)nc(Nc3cc(Cl)cc(Cl)c3)c12 [GSK2188764A] | 0.04842 | 0 | 0 | 0 | 0 | – | 114
20 | COc1cc2nccc(Oc3ccc(NC(=O)C4(C(=O)Nc5ccc(F)cc5)CC4)cc3)c2cc1OC [Cabozantinib, reference compound] | 0 | 0 | 0 | 0 | 0 | – | –
21 | O=c1cc(N2CCOCC2)nc2n(Cc3cccc(Cl)c3Cl)ccn12 [GSK2286295A] | 0 | 0 | 0 | 0 | 0 | – | –
22 | COc1cc2ncnc(Nc3ccc(F)c(Cl)c3)c2cc1O[C@H]1CC[C@H](N)CC1 [BIBW3133BS] | 0 | 0 | 0 | 0 | 0 | – | –
23 | Nc1nccc(-c2ccc3c(N)n[nH]c3c2)n1 [GSK1034945A] | 0.08249 | 0 | 0 | 0 | 0 | 194 | –
24 | C[C@H]1CC[C@@H](C(=O)Nc2ccccc2)CN1c1cc(-c2ccc3c(N)n[nH]c3c2)nc(N)n1 [GSK2283293_KCGS] | 0 | 0 | 0 | 0 | 0 | – | –
25 | O=C1Nc2ccccc2/C1=C1\CCc2cc(O)ccc21 [GR105659X] | 0 | 0 | 0 | 0 | 0 | – | –
26 | Cc1ccc(NC(=O)Nc2ccccc2)cc1-c1ccc(C(=O)Nc2ccncc2)cc1 [GSK1398471A] | 0 | 0 | 0 | 0 | 0 | – | –
27 | COc1cc(N2CCN(C(C)C)CC2)ccc1Nc1nc(Nc2ccc(F)cc2C(N)=O)c2cc[nH]c2n1 [GSK1220512A] | 0 | 0 | 0 | 0 | 0 | – | –
28 | COc1cc2c(cc1Nc1nc(Nc3ccsc3C(N)=O)c3cc[nH]c3n1)N(C(=O)CN(C)C)CCC2 [GSK2110236A] | 0 | 0 | 0 | 0 | 0 | – | –
29 | O=c1cc(N2CCOCC2)nc2n(Cc3cccc(F)c3)ccn12 [GSK2297430A] | 0 | 0 | 0 | 0 | 0 | – | –
30 | Fc1ccc(-c2nc3n(c2-c2ccncc2)CCS3)cc1 [GI98581X] | 0 | 0 | 0 | 0 | 0 | – | –
31 | O=C(Nc1c(F)cccc1F)c1cc(C(=O)c2ccccc2F)c[nH]1 [GSK1326180A] | 0 | 0 | 0 | 0 | 0 | – | –
